Where “and” joins values, the source holds several entries; their conditions need not be identical. Equal entries are not always repeated.
Legend:
[1] = test system: ovariectomized female rat; test: Bone impact study in the ovariectomized female rat at the age of 3 months (tibia BMD, uterus weight, serum cholesterol); assay type: in vivo; settings: OVX rat; for TIBIA BONE BMD %: OVX=0, SHAM=100; for UTERUS Weight % / Cholesterol %: 4 weeks; for UTERUS Weight %: increase in % of uterus weight of OVX animals receiving solvent; for Cholesterol %: serum cholesterol change in % relative to OVX animals receiving solvent
Experimental: Bone impact study of a product in the ovariectomized female rat at the age of 3 months The compounds are tested in order to determine their effect on the bone mass and on the formation and resorption activity in the model of the ovariectomized rat at the age of 3 months. The animals are treated in a preventive fashion. [table] 1—Product to be tested: Product of Example 1. vehicle(s): corn oil, 0.5% methylcellulose number of administrations: once/day; 5 days/week for 4 weeks administration route: oral route for the product 2—Reference product: 17β oestradiol is administered by subcutaneous route at a dose of 0.1 or 0.01 mg/kg/d in solution in a mixture of corn oil-benzyl alcohol (99:1, v/v) under a volume of 0.2 ml/kg. The study is carried out with female rats ovariectomized at the age of 3 months. The animals are kept in an air-conditioned room (temperature 20° C.±2° C.) and grouped by 4 into boxes. The animals receive, ad libitum, demineralized water and compressed foods (pellets: AO4CR-10 UAR). The 3 month old female rats weighing approximately 250 g are ovariectomized under anaesthesia with Imalgene 1000, at a dose of 100 mg/kg by intraperitoneal route (i.p.) and under a volume of 1 ml/kg. They also receive Nembutal (3 mg/kg i.p. under a volume of 0.3 ml/kg). The effects of the products are determined in a preventive treatment. They are administered immediately after the ovariectomy. Animals are distributed into groups of 8. Group 1: “SHAM” control rats receiving the vehicle or vehicles. Group 2: “OVX” control rats receiving the vehicle or vehicles. Groups X: “OVX” rats receiving respectively defined doses of the product or products to be tested. At the end of 4 weeks (duration of the study) the animals are decapitated by guillotine. The serums collected after centrifugation are preserved at −20° C. A lipidic balance will be established from the serous determinations of total cholesterol, of triglycerides and of phospholipids on a 500 μl aliquot of serum. Lowering of the serous cholesterol level is expressed in % relative to the level shown by the ovariectomized animals receiving only the solvent. The uteri are removed. The latter are weighed. The increase in weight is expressed in % of the weight of the uterus of ovariectomized animals receiving only the solvent. The bone mass (BMD or bone mineral density) is measured by biphotonic dual energy X-ray absorptiometry (DEXA). The measurements are carried out on bone excized and cleaned of all soft tissue. The BMD (bone mineral density) is measured on the whole bone as well as on the metaphyseal part at the level of the proximal extremity for the left tibia. This zone is defined as being the region which is richest in trabecular bone; and consequently, is the most sensitive to variations in bone volume and bone mineral density. The results are expressed in % according to the formula: […]

[2] = test system: MCF-7 human mammary cells; test: Effect on the proliferation of mammary cells (MCF-7, determination of the DNA); assay type: cell-based; set-up: key: Agonist: the effect of the oestradiol at 10^−10M (cell growth in the presence of oestradiol less cell growth in the presence of the solvent) determines the 100% agonist activity; Inactive: molecules inducing an identical cell growth to that observed with the solvent alone are classified as “inactive”; Inhibitor: those inducing a lower cell growth to that observed with the solvent are classified as “inhibitor”; settings: 7 days culture in steroid-free medium; compared with oestradiol at 10^−10M = 100% agonist activity
Experimental: Effect on the Proliferation of Mammary Cells The proliferative activity of the molecules is studied in comparison to that of oestradiol on MCF-7 human mammary cells in culture. […] Cells undergo this severance two days before the start of the test. After 7 days culture in the presence of the products to be studied, the cell proliferation is evaluated by determination of the DNA. In each test, the effect of the oestradiol at 10^−10M (cell growth in the presence of oestradiol less cell growth in the presence of the solvent) determines the 100% agonist activity. The activity of the molecules is evaluated in comparison to this internal control.

[3] = 0.3 mg/kg po, listed as Ex. 1, 0.3 mg/kg

Compound: CC1CCN(CCOc2ccc([C@H]3C[C@]4(C)[C@H](F)CC[C@H]4[C@@H]4CCc5cc(O)ccc5[C@H]43)cc2)CC1.Cl
- melting point: 200 °C

Compound: C[C@]12CC[C@@H]3c4ccc(O)cc4CC[C@H]3[C@@H]1CC[C@@H]2O [Oestradiol, 17β oestradiol, reference compound]
- TIBIA BONE BMD % ([1]; 0.01 mg/kg s.c., 4 weeks preventive): 95%
- UTERUS Weight % ([1]; 0.01 mg/kg s.c.): 317%
- Cholesterol % ([1]; 0.01 mg/kg s.c.): −16%
- TIBIA BONE BMD % ([1]; 0.1 mg/kg s.c., 4 weeks preventive): 139%
- UTERUS Weight % ([1]; 0.1 mg/kg s.c.): 220%
- Cholesterol % ([1]; 0.1 mg/kg s.c.): −3%
- ACTIVITY (proliferative activity on MCF-7 cells) [2]: Agonist

Compound: COc1ccc2c(c1)CC[C@@H]1[C@@H]2[C@@H](c2ccc(OCCN3CCCC3)cc2)C[C@]2(C)[C@H](F)CC[C@@H]12
- melting point: 132 °C

Compound: C[C@]12C[C@H](c3ccc(OCCN4CCCCC4)cc3)[C@@H]3c4ccc(O)cc4CC[C@H]3[C@@H]1CC=C2I.Cl
- melting point: 260 °C

Compound: C[C@]12C[C@H](c3ccc(OCCN4CCCCC4)cc3)[C@@H]3c4ccc(O)cc4CC[C@H]3[C@@H]1CC[C@H]2F [Example 1, 17 alpha-fluoro-11 beta-[4-[2-(1-piperidinyl)ethoxy]phenyl]-estra-1,3,5(10)-trien-3-ol]
- UTERUS Weight % ([1]; 0.1 mg/kg po): 67%
- Cholesterol % ([1]; 0.1 mg/kg po): −49%
- TIBIA BONE BMD % ([1]; 0.1 mg/kg po, once/day 5 days/week 4 weeks): 57%
- UTERUS Weight % [1, 3]: 70% and 41%
- Cholesterol % [1, 3]: −59% and −51%
- TIBIA BONE BMD % ([1]; 0.3 mg/kg po, once/day 5 days/week 4 weeks, listed as Ex. 1, 0.3 mg/kg): 71% and 73%
- UTERUS Weight % ([1]; 1.0 mg/kg po): 93%
- Cholesterol % ([1]; 1.0 mg/kg po): −61%
- TIBIA BONE BMD % ([1]; 1.0 mg/kg po, once/day 5 days/week 4 weeks): 72%
- ACTIVITY (proliferative activity on MCF-7 cells) [2]: Inactive

Compound: C[C@]12C[C@H](c3ccc(OCCN4CCCCC4)cc3)[C@@H]3c4ccc(O)cc4CC[C@H]3[C@@H]1CC[C@H]2F.Cl [Example 2, 17 alpha-fluoro-11-beta-[4-[2-(1-piperidinyl)ethoxy]phenyl]-estra-1,3,5(10)-trien-3-ol hydrochloride]
- ACTIVITY (proliferative activity on MCF-7 cells) [2]: Inactive
